The source made the active and inactive calls. No cut-off for these calls is given here.

The test system of data set [1] is Stenotrophomonas. The experiment in a line: Antimicrobial activity against Stenotrophomonas YC-1 assessed as lethal concentration. The format is functional.
The subject of data set [2] is Agrobacterium tumefaciens. The data set is described as follows: Antimicrobial activity against Agrobacterium tumefaciens assessed as lethal concentration. It counts as functional.
A further data set concerns Priestia megaterium. The experiment in a line: Antimicrobial activity against Bacillus megaterium assessed as lethal concentration. The format is functional.
The nature of data set [3]: Cytotoxicity against mouse erythrocyte assessed as hemolysis at 50 uM. The format is cell-based. The settings on record: erythrocytes, read-out: Activity.
The subject of a further data set is Micrococcus luteus. The data set is described as follows: Antimicrobial activity against Micrococcus luteus assessed as lethal concentration. The format is functional.
Data set [4] concerns Bacillus sp. The experiment in a line: Antimicrobial activity against Bacillus sp. DM-1 assessed as lethal concentration. The format is functional.
A further data set concerns Geotrichum candidum. The experiment in a line: Antifungal activity against Geotrichum candidum assessed as lethal concentration. The format is functional.
Another data set has as its system Saccharomyces cerevisiae. The data set is described as follows: Antimicrobial activity against Saccharomyces cerevisiae assessed as lethal concentration. It counts as functional.
Another data set concerns Shewanella oneidensis. The data set is described as follows: Antimicrobial activity against Shewanella oneidensis assessed as lethal concentration. It counts as functional.
Another data set concerns Pseudomonas aeruginosa. The data set is described as follows: Antimicrobial activity against Pseudomonas aeruginosa assessed as lethal concentration. The format is functional.
The test system of another data set is Pseudomonas putida. The data set is described as follows: Antimicrobial activity against Pseudomonas putida assessed as lethal concentration. It counts as functional.
The subject of another data set is Serratia marcescens. The data set is described as follows: Antimicrobial activity against Serratia marcescens assessed as lethal concentration. It counts as functional.
A further data set concerns Klebsiella sp. The experiment in a line: Antimicrobial activity against Klebsiella sp. F51-1-2 assessed as lethal concentration. The format is functional.
Data set [5] has as its system Stenotrophomonas. The data set is described as follows: Antimicrobial activity against Stenotrophomonas LZ-1 assessed as lethal concentration. It counts as functional.
The subject of the next data set is Salmonella typhimurium. The data set is described as follows: Antimicrobial activity against Salmonella Typhimurium assessed as lethal concentration. It counts as functional, Salmonella enterica subsp. enterica serovar Typhimurium.
In data set [6] the test system is Bacillus sp. The experiment in a line: Induction of membrane disruption in Bacillus sp. DM-1 at 10 uM after 30 mins using propidium iodide. The format is functional, organism-based.
Where [7] appears, read: Salmonella enterica subsp. enterica serovar Typhimurium.

On to H-IFGAIAGFIKNIW-NH2, for which the Activity in the data set on Stenotrophomonas [1] stood at 76.98 µM; in data set [2], 20.79 µM; in the data set with Priestia megaterium, 14.1 µM; in the data set on Micrococcus luteus, 5.95 µM; with Bacillus sp. [4], 2.16 µM; in the data set on Geotrichum candidum, 5.36 µM. For the same substance, the Activity turned out to be 28.29 µM in the data set with Saccharomyces cerevisiae; 76.98 µM in the data set with Shewanella oneidensis; 31.55 µM with Pseudomonas aeruginosa; 9.78 µM with Pseudomonas putida; 19.25 µM in the data set on Serratia marcescens; 23.81 µM with Klebsiella sp.. Also, the Activity in the data set with Stenotrophomonas [5] and in the data set with Salmonella typhimurium was above 100 µM in each case. In addition, the hemolysis at 50 µM in data set [3] stood at 24.1%.

As for H-IFGAIAGFIKNGW-OH, the result (in the data set with Stenotrophomonas [1]; in data set [2]; with Priestia megaterium; with Micrococcus luteus; in the data set with Geotrichum candidum; in the data set with Saccharomyces cerevisiae) was inactive. Further, the outcome with Shewanella oneidensis, in the data set on Pseudomonas aeruginosa, in the data set on Pseudomonas putida, in the data set with Serratia marcescens, in the data set on Klebsiella sp. and in the data set on Stenotrophomonas [5] was inactive. Besides, the outcome in the data set on Salmonella typhimurium (setting [7]) was inactive. Further, in the data set on Bacillus sp. [4], the Activity turned out to be 49.93 µM.

For the substance H-IFGAIAGFIKNGW-NH2, the outcome (in the data set with Stenotrophomonas [1]; in data set [2]; in the data set with Priestia megaterium; in the data set with Geotrichum candidum; in the data set with Shewanella oneidensis; in the data set on Pseudomonas aeruginosa) was inactive. In addition, the result in the data set on Pseudomonas putida, in the data set with Stenotrophomonas [5] and in the data set on Salmonella typhimurium (setting [7]) was inactive. Further, the Activity in the data set on Micrococcus luteus is 14.1 µM; in the data set on Bacillus sp. [4], 5.36 µM; in the data set on Saccharomyces cerevisiae it was 83.26 µM; in the data set on Serratia marcescens, above 100 µM; in the data set on Klebsiella sp., above 100 µM.

H-IFGAIAGLLKNIF-NH2 [Meucin-13]: the Activity in the data set with Stenotrophomonas [1] is 6.2 µM; in [2] it was 11.8 µM; in the data set with Priestia megaterium it was 0.25 µM; with Micrococcus luteus, 2.9 µM; in the data set with Bacillus sp. [4], 2 µM; in the data set with Geotrichum candidum, above 50 µM. In addition, the Activity with Saccharomyces cerevisiae is 18.3 µM; with Shewanella oneidensis it was 6.2 µM; with Salmonella typhimurium, above 50 µM. Besides, the outcome in the data set with Bacillus sp. [6] was Active. Moreover, the hemolysis at 50 µM in [3] is 64.7%. Also, the result in the data set with Pseudomonas aeruginosa and in the data set on Serratia marcescens was inactive.

Consider H-IFGAIAGFIKNIW-OH, for which the outcome (in the data set with Stenotrophomonas [1]; in [2]; in the data set with Priestia megaterium; in the data set with Micrococcus luteus; in the data set on Geotrichum candidum; in the data set with Saccharomyces cerevisiae) was inactive. For the same substance, the result in the data set with Shewanella oneidensis, with Pseudomonas aeruginosa, in the data set on Pseudomonas putida, with Serratia marcescens, in the data set on Klebsiella sp. and with Stenotrophomonas [5] was inactive. Also, the result in the data set with Salmonella typhimurium (setting [7]) was inactive. The Activity in the data set on Bacillus sp. [4] turned out to be 49.93 µM.

Values taken from ChEMBL document CHEMBL1671776, “Convergent evolution-guided design of antimicrobial peptides derived from influenza A virus hemagglutinin” (J Med Chem, 2011).
